ChEMBL document CHEMBL1201862, “PubChem BioAssay data set” (2004)
Active and inactive are the calls of the source.

Assays:
Leucine aminopeptidase = target: T1, Leucine aminopeptidase (Plasmodium falciparum 3D7, UniProt Q8IL11); assay: P. falciparum M17LAP inhibitors, primary screen, biochemical, fluorogenic H-Leu-NHMec substrate, 1536-well (AID 1619); format: functional
T1 sequence (Q8IL11 whole entry): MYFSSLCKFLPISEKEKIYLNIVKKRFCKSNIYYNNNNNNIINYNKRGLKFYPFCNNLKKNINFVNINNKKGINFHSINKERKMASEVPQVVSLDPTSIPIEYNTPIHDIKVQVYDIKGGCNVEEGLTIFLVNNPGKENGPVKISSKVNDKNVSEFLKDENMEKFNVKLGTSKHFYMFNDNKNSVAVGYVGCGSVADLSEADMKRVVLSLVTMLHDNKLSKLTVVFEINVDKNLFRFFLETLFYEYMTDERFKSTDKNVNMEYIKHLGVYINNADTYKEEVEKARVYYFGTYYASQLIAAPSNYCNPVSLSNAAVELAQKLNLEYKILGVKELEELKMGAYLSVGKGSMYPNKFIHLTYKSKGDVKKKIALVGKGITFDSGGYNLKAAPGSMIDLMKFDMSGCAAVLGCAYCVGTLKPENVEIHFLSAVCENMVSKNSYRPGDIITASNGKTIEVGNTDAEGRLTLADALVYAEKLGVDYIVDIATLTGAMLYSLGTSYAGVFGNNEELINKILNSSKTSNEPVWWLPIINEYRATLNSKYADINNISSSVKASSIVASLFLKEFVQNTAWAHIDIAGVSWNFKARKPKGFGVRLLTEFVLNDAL

Aminopeptidase N = target: T2, Aminopeptidase N (Plasmodium falciparum FcB1/Columbia, UniProt O96935); assay: P. falciparum M1AAP inhibitors, biochemical, fluorogenic H-Leu-NHMec substrate, 1536-well (AID 1445); set-up: species or system Plasmodium falciparum 3D7, 3D7
T2 sequence (O96935 whole entry): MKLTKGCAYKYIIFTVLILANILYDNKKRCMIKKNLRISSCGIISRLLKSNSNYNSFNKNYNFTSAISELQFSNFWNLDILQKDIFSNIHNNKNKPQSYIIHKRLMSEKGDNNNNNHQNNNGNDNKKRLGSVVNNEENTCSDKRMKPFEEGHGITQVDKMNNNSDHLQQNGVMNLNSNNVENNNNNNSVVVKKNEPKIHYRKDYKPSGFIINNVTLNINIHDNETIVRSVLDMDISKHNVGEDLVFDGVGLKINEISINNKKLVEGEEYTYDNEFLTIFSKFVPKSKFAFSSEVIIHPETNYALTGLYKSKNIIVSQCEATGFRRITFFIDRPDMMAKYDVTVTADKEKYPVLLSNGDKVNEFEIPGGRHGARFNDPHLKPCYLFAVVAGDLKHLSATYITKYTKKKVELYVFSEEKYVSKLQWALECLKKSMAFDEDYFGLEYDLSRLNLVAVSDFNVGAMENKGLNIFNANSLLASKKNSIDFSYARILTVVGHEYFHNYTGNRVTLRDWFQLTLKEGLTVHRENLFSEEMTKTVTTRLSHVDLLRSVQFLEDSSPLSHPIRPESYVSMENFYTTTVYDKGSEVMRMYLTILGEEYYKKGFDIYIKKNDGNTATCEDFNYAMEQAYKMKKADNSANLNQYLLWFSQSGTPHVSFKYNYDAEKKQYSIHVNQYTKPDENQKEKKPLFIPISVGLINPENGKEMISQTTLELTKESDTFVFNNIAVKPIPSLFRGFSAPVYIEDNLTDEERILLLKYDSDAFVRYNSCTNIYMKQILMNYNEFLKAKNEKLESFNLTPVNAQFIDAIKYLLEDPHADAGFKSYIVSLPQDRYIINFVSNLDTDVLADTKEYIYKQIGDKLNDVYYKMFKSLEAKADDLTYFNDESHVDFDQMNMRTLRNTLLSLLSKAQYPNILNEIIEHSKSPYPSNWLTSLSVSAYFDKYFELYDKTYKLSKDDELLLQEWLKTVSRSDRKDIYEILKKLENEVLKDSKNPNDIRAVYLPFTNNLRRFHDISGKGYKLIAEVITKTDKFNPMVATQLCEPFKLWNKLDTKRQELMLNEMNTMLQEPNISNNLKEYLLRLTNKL

Cytochrome P450 1A2 = target: T3, Cytochrome P450 1A2 (Homo sapiens, UniProt P05177);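 note: PubChem cytochrome P450 panel assay, CYP1A2 panel member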
T3 sequence (P05177 whole entry): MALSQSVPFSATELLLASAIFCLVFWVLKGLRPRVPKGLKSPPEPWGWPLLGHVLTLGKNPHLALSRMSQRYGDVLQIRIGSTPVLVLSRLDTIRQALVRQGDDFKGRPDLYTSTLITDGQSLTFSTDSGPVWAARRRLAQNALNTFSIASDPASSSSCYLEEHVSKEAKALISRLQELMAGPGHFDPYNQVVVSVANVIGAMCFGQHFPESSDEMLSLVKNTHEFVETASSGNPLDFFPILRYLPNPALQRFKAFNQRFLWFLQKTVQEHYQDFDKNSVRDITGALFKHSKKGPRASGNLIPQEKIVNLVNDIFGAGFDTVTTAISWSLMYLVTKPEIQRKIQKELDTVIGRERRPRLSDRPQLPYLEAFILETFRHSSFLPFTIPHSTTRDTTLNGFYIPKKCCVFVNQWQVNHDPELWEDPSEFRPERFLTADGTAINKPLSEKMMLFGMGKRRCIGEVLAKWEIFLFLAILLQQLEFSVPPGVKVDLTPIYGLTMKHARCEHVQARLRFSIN

[1] = growth suppression of PTEN-null colon cells, dose response, cell-based, HCT116 PTEN knockout (AID 1047); format: functional;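 note: HCT116 colon tumor cells with PTEN knocked out; cells exposed to compound for 60 hours before readout; potency for loss of cell viability measured by luminescence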
[2] = growth suppression of beta-catenin-knockout colon cells, dose response, cell-based, HCT116, human colon tumor (AID 1045); format: functional;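 note: HCT116 colon tumor cells with beta catenin knocked out; cells exposed to compound for 60 hours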
[3] = Luminescence Cell-Based Dose Retest to Confirm Inhibitors of Cancer Stem Cells. [Related pubchem assays (depositor defined):AID2717, AID2721]; format: functional; settings: Homo sapiens
Large T antigen = Large T antigen (Simian virus 40, UniProt P03070); format: functional, Betapolyomavirus macacae;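 note: Confirmatory-stage PubChem screen for compounds that inhibit SV40 T antigen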
[4] = target: Induced myeloid leukemia cell differentiation protein Mcl-1 (Homo sapiens, UniProt Q07820); format: functional
Nonstructural protein 1 = Nonstructural protein 1 (Influenza A virus, UniProt Q194T2); format: functional, Influenza A virus (A/California/07/2009(H1N1))
[5] = inhibitors of HIV Env-driven cell fusion, dose response, cherry-pick (AID 652057); format: functional, cell-based
[6] = ZM109 Env clade C HIV-1 fusion inhibitors, dose response, HeLa effector, CEM target cells, luciferase, cherry-pick (AID 652058); format: functional, cell-based
[7] = inhibitors of clade B AD8 Env fusion, dose response, cell-based, cherry-pick (AID 652062); format: functional;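 note: luciferase signal from cell-cell fusion driven by HIV-1 clade B AD8 Env; potency is for inhibitors of fusion seen as a drop in luminescence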
[8] = off-target signal loss in HeLa-CEM21 co-culture – HeLa F-luc CTL cells, cherry-picked, counter-screen for HIV-1 Env fusion inhibitor project, dose response (AID 652040); format: functional, cell-based;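 note: potency for signal decrease marking cytotoxic or nonspecific inhibition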
[9] = HEp-2 cell cytotoxicity, dose response, cytotoxicity control for RSV inhibitor project, HTS (AID 2410); format: functional; settings: human respiratory syncytial virus
[10] = Shn3 3'UTR reporter inhibitors, dose response, cell-based, Clone20 osteoblasts, firefly luciferase, cherry-picked (AID 624132); format: functional;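 note: firefly luciferase luminescence from reporter carrying the Shn3 3'UTR in osteoblasts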
INS1 = assay: beta cell apoptosis inhibitors, cytokine rescue, dose response, luminescence, retest (AID 449756); format: functional, cell-based; settings: Rattus norvegicus;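 note: cell death triggered by IL-1 beta plus TNF-alpha plus IFN-gamma mixture; protective hits raise ATP signal compared with cytokine alone wells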
[11] = target: T4, Rac GTPase-activating protein 1 (Homo sapiens, UniProt Q9H0H5); assay: MgcRacGAP GTPase-activating activity inhibitors, confirmation, biochemical, ADP Hunter fluorescence, primary and confirmatory (AID 624330); format: functional
T4 sequence (Q9H0H5 whole entry): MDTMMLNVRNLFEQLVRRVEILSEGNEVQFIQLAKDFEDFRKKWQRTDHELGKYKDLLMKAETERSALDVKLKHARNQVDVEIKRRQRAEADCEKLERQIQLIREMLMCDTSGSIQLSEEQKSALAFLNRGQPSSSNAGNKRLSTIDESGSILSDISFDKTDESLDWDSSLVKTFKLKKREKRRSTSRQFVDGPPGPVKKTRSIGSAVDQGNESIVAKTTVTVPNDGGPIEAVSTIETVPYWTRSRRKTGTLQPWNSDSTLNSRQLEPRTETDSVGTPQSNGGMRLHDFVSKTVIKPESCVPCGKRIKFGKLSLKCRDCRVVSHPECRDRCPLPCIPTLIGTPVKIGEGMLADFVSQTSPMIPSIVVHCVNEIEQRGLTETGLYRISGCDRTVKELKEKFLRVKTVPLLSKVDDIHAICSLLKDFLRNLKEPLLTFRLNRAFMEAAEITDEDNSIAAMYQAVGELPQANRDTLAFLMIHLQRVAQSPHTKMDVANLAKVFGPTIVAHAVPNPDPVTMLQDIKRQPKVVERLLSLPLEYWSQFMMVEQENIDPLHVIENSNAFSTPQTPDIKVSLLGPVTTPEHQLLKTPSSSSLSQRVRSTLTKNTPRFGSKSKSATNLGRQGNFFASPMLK

Sequence of Large T antigen (P03070 whole entry): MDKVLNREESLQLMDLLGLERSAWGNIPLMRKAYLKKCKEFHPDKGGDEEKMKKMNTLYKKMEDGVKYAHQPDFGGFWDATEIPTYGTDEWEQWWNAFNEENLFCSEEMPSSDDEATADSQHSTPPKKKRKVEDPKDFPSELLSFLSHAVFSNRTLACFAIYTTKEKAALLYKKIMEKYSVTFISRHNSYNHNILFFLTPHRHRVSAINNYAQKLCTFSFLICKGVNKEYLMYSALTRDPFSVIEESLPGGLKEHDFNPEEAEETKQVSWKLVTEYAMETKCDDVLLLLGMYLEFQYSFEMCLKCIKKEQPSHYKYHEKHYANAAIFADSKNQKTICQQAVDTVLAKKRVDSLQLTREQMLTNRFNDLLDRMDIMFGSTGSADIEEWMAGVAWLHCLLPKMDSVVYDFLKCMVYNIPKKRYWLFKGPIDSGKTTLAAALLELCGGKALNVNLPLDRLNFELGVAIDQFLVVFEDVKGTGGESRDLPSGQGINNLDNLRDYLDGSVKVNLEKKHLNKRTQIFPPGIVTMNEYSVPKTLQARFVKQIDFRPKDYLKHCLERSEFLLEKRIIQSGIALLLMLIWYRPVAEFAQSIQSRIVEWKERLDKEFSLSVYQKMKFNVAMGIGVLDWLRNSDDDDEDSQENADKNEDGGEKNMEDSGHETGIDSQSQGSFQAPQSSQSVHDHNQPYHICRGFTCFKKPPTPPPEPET
Sequence of Induced myeloid leukemia cell differentiation protein Mcl-1 (Q07820 whole entry): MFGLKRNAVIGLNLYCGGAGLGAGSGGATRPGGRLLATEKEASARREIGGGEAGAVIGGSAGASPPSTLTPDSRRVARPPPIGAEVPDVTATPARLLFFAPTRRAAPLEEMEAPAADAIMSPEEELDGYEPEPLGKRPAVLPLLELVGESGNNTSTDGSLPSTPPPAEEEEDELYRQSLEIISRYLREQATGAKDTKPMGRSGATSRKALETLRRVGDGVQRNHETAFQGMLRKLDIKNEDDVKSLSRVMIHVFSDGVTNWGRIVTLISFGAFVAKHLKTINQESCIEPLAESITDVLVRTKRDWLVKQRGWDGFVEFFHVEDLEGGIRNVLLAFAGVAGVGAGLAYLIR
Sequence of Nonstructural protein 1 (Q194T2 whole entry, the tested form may be a part): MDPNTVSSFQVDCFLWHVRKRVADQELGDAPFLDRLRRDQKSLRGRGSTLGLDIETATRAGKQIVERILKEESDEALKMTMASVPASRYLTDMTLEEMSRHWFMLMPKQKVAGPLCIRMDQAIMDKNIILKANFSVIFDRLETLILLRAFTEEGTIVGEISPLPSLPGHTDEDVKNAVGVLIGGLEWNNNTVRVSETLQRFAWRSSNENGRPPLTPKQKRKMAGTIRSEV

For `O=C(CSc1ncccc1C(=O)O)NCc1ccc(F)cc1`, the IC50 (Leucine aminopeptidase) was 42.7 µM (active).

With `CC(C)S(=O)(=O)C1=NSC2=NC(=O)/C(=C\c3c[nH]c4ccccc34)C(=N)N21` the IC50 (Aminopeptidase N) was 37.3 µM (active).

For `CCC(=O)c1ccc(OCC(O)CN(CCc2ccccc2)Cc2ccccc2)cc1` (stereo not given), the AC50 (Cytochrome P450 1A2) was 20 µM (inconclusive), the EC50 [1] was 49.2 µM (active) and the EC50 [2] was 83.6 µM (active).

For `COc1ccc(C2NCCc3c2[nH]c2ccccc32)cc1CSc1nc2ccccc2s1` (stereo not given), the AC50 [3] was 3.13 µM (active), the EC50 [1] was 12.1 µM (active) and the EC50 [2] was 10.1 µM (active).

In the case of `Cc1nnc(SCC(=O)Nc2ccc(N(C)C)cc2)n(N)c1=O`, the IC50 (Large T antigen) is reported as 11.6 µM (active).

For `CCc1cc(=O)oc2c(C)c(O)c(CN3CCCCC3)cc12`, the IC50 (Aminopeptidase N) was 39.9 µM (active).

In the case of `FC(F)(F)C1=CC(c2ccccc2)=NCCN1`, the IC50 [4] is reported as 9.33 µM (not active).

For `CC(NC(=O)c1ccco1)C(=O)Nc1nc(-c2ccccn2)cs1` (stereo not given), the IC50 (Nonstructural protein 1) was 9.55 µM (active).

With `CCCCc1nc2sc3c(c2c(=O)n1NC(=O)c1ccco1)CC(C)(C)OC3` the IC50 (Aminopeptidase N) was 42.8 µM (active).

In the case of `NC(CC(=O)O)c1ccc(Br)cc1` (stereo not given), the IC50 (Aminopeptidase N) is reported as 69.2 µM (active).

With `O=c1[nH]c2ccc(Cl)cc2c(-c2ccccc2)c1CN1CCOCC1` the IC50 (Aminopeptidase N) was 81.5 µM (active).

In the case of `Oc1ccc(-c2nc3ncccn3c2Nc2ccc3c(c2)OCO3)cc1`, the IC50 (Large T antigen) is reported as 15.6 µM (active).

For `O=C(Nc1nc2ccccc2[nH]1)c1ccc(Cl)c([N+](=O)[O-])c1`, the IC50 [4] was 6.46 µM (active).

In the case of `COc1ccc(/C=C/C(O)=C2\C(=O)NC(=O)N(CCC3=CCCCC3)C2=O)cc1`, the AC50 [3] is reported as 2.71 µM (active), the EC50 [1] is reported as 13.7 µM (active) and the EC50 [2] is reported as 14.4 µM (active).

With `CN(C)c1ccc(NC(=O)CCN2CCN(c3ccccn3)CC2)cc1` the IC50 (Large T antigen) was 6.73 µM (active).

In the case of `CC1CCC2(CC1)NC(=O)N(CC(=O)Nc1ccc3c(c1)OCCO3)C2=O` (stereo not given), the IC50 (Leucine aminopeptidase) is reported as 13.8 µM (active).

For `COc1ccc(C(C(=O)NC2CCCC2)N(C(=O)c2ccoc2C)c2ccc(C)cc2)cc1` (stereo not given), the AC50 [5] was 5.46 µM (active), the AC50 [6] was 3.47 µM (active) and the AC50 [7] was 11.7 µM (active). For the same molecule, the AC50 [8] was 8.48 µM (active).

With `C=CCOc1ccccc1CNc1ccc2[nH]c(O)nc2c1` the IC50 (Large T antigen) was 19 µM (active) and the CC50 [9] was 21.8 µM (active).

For `CCOc1ccc(C2C3=C(O)c4ccccc4C3=Nc3nc(N)nc(O)c32)cc1` (stereo not given), the IC50 [4] was > 54 µM (active).

In the case of `Cc1cc(C=C2C(=O)c3ccccc3C2=O)c(C)n1-c1cccc(C(=O)O)c1`, the IC50 (Leucine aminopeptidase) is reported as 18.6 µM (active).

For `CC12CC3CC(C)(C1)CC(C(=O)NCc1ccncc1)(C3)C2`, the AC50 [5] was 7.75 µM (active), the AC50 [6] was 4.58 µM (active) and the AC50 [7] was 22.4 µM (active). For the same molecule, the AC50 [8] was 13.5 µM (active).

With `CCCCN1CC(COCc2ccccc2)Oc2cccc(Oc3ccc(C)cc3)c2S1(=O)=O` (stereo not given) the AC50 [10] was 10.7 µM (active).

With `Cc1ccccc1NC(=S)N/N=C/c1ccc(O)cc1O` the IC50 (Nonstructural protein 1) was 11.2 µM (active) and the AC50 (INS1) was 2.54 µM (active).

In the case of `CCOc1cc(/C=N/NC(=O)CCc2nnc(O)nc2O)ccc1O`, the IC50 (Large T antigen) is reported as 32.7 µM (active) and the IC50 [11] is reported as 59.5 µM (active).

With `COc1nccnc1NS(=O)(=O)c1ccc(/N=C/c2c(C)nn(-c3ccc(C)c(C)c3)c2O)cc1` the IC50 (Leucine aminopeptidase) was 19.3 µM (active).
